In ChEMBL document CHEMBL1201862, “PubChem BioAssay data set” (2004):
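Exposure lasted 48 hours, with cells grown in 96-well plates and compounds tested at five concentrations. At the GI50, growth is halved.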 Calls of active or inactive are those of the source. Rule as the data show it: active = GI50 up to about 1.1 µM and inactive = higher.

Assays:
Assay in all cases: NCI anticancer screen, dose series, 48 h
786-0 = system: 786-0
ACHN = system: ACHN
COLO 205 = system: COLO 205
EKVX = system: EKVX
MCF7 = system: MCF7
MDA-MB-435 = system: MDA-MB-435
MOLT-4 = system: MOLT-4
NCI/ADR-RES = system: NCI/ADR-RES
OVCAR-4 = system: OVCAR-4
OVCAR-5 = system: OVCAR-5
OVCAR-8 = system: OVCAR-8
RPMI-8226 = system: RPMI-8226
SK-MEL-2 = system: SK-MEL-2
SR = system: SR
UACC-257 = system: UACC-257
UO-31 = system: UO-31
CAKI-1 = system: CAKI-1
HCC 2998 = system: HCC 2998
LOX IMVI = system: LOX IMVI
SK-MEL-5 = system: SK-MEL-5

Measured: GI50

C1=N\CCN2CCN(CC/N=C\c3ccc(cc3)OCc3cccc(n3)COc3ccc/1cc3)CC2
inactive: 786-0 > 50 µM | ACHN > 50 µM | COLO 205 > 50 µM | EKVX > 50 µM | MCF7 > 50 µM | MDA-MB-435 > 50 µM | MOLT-4 > 50 µM | NCI/ADR-RES > 50 µM | OVCAR-4 > 50 µM | OVCAR-5 > 50 µM | OVCAR-8 > 50 µM | RPMI-8226 > 50 µM | SK-MEL-2 > 50 µM | SR > 50 µM | UACC-257 > 50 µM | UO-31 > 50 µM

O=c1[nH]nc(Cc2ccc(Cl)cc2)n1/N=C/c1ccco1
inactive: 786-0 30.4 µM | ACHN > 100 µM | CAKI-1 > 100 µM | COLO 205 > 100 µM | EKVX > 100 µM | HCC 2998 > 100 µM | MCF7 3.15 µM | MDA-MB-435 > 100 µM | MOLT-4 > 100 µM | NCI/ADR-RES 96.8 µM | OVCAR-4 > 100 µM | OVCAR-5 > 100 µM | OVCAR-8 66.5 µM | RPMI-8226 > 100 µM | SK-MEL-2 40.1 µM | SR > 100 µM | UACC-257 > 100 µM | UO-31 > 100 µM

CC(C)=C[C@@H]1C[C@H](C)c2c(O)cc(C)c3c2C1=C(C)C(=O)C3=O [ELISABATIN A]
inactive: 786-0 15.9 µM | ACHN 17.6 µM | CAKI-1 16.6 µM | COLO 205 17.7 µM | EKVX 14.3 µM | HCC 2998 21.8 µM | LOX IMVI 16.3 µM | MCF7 22.8 µM | MDA-MB-435 15.6 µM | MOLT-4 28.6 µM | NCI/ADR-RES 18.9 µM | OVCAR-4 10.9 µM | OVCAR-5 24.7 µM | OVCAR-8 16.9 µM | RPMI-8226 18.2 µM | SK-MEL-5 13.6 µM | UACC-257 17.6 µM

NC(=S)SCCC(=O)O
inactive: 786-0 > 100 µM | ACHN > 100 µM | CAKI-1 > 100 µM | COLO 205 > 100 µM | EKVX > 100 µM | HCC 2998 > 100 µM | LOX IMVI > 100 µM | MCF7 > 100 µM | MDA-MB-435 > 100 µM | MOLT-4 > 100 µM | NCI/ADR-RES > 100 µM | OVCAR-4 > 100 µM | OVCAR-5 > 100 µM | OVCAR-8 > 100 µM | RPMI-8226 > 100 µM | SK-MEL-2 > 100 µM | SK-MEL-5 > 100 µM | UACC-257 > 100 µM | UO-31 > 100 µM

C[n+]1c(-c2ccc(/C=N/NC(=S)N/N=C/c3ccc(-c4cn5ccsc5[n+]4C)cc3)cc2)cn2ccsc21
inactive: 786-0 > 100 µM | ACHN > 100 µM | COLO 205 > 100 µM | EKVX > 100 µM | HCC 2998 > 100 µM | MCF7 > 100 µM | MDA-MB-435 37.7 µM | MOLT-4 > 100 µM | NCI/ADR-RES > 100 µM | OVCAR-4 > 100 µM | OVCAR-5 > 100 µM | OVCAR-8 > 100 µM | RPMI-8226 62.1 µM | SK-MEL-5 > 100 µM | SR > 100 µM | UACC-257 > 100 µM | UO-31 > 100 µM

CCOC(=O)C(C)c1nc2cc(F)c(F)cc2[nH]c1=O (stereo not drawn)
inactive: 786-0 > 100 µM | ACHN > 100 µM | CAKI-1 > 100 µM | COLO 205 > 100 µM | EKVX > 100 µM | HCC 2998 > 100 µM | LOX IMVI > 100 µM | MCF7 > 100 µM | MDA-MB-435 > 100 µM | MOLT-4 > 100 µM | NCI/ADR-RES > 100 µM | OVCAR-4 > 100 µM | OVCAR-5 > 100 µM | OVCAR-8 > 100 µM | RPMI-8226 > 100 µM | SK-MEL-2 > 100 µM | SK-MEL-5 > 100 µM | UACC-257 > 100 µM | UO-31 > 100 µM

O=C1CN(c2cccc(C(F)(F)F)c2)C(=O)CN1NCNN1CC(=O)N(c2cccc(C(F)(F)F)c2)CC1=O
inactive: 786-0 > 100 µM | ACHN > 100 µM | COLO 205 > 100 µM | EKVX > 100 µM | HCC 2998 > 100 µM | MCF7 > 100 µM | MDA-MB-435 > 100 µM | MOLT-4 > 100 µM | NCI/ADR-RES > 100 µM | OVCAR-5 > 100 µM | OVCAR-8 > 100 µM | RPMI-8226 > 100 µM | SK-MEL-5 > 100 µM | SR > 100 µM | UACC-257 > 100 µM | UO-31 > 100 µM

CCOC(=O)/C(=N\Nc1ccc(-n2c(C)nc3ccc(Br)cc3c2=O)cc1)C(C)=O
inactive: 786-0 59.2 µM | ACHN 93.1 µM | CAKI-1 > 100 µM | COLO 205 54.3 µM | EKVX 72.1 µM | LOX IMVI > 100 µM | MCF7 50.4 µM | MDA-MB-435 50.6 µM | MOLT-4 25.2 µM | NCI/ADR-RES 52 µM | OVCAR-5 > 100 µM | OVCAR-8 55.2 µM | RPMI-8226 16.4 µM | SK-MEL-2 70 µM | SK-MEL-5 13.1 µM | SR 22.3 µM | UACC-257 84.5 µM | UO-31 29.8 µM

Cc1ccc2c(n1)NC(=O)C(Cc1ccccc1)(N=[N+]=[N-])C2=O (stereo not drawn)
inactive: 786-0 > 100 µM | ACHN > 100 µM | CAKI-1 > 100 µM | COLO 205 > 100 µM | HCC 2998 > 100 µM | MCF7 > 100 µM | MDA-MB-435 > 100 µM | MOLT-4 > 100 µM | NCI/ADR-RES > 100 µM | OVCAR-4 > 100 µM | OVCAR-5 > 100 µM | OVCAR-8 > 100 µM | SR > 100 µM | UACC-257 > 100 µM | UO-31 > 100 µM

NC(=O)CC(Nc1ncc2c(n1)-c1ccccc1OC2)C(=O)O (stereo not drawn)
inactive: 786-0 > 100 µM | ACHN > 100 µM | CAKI-1 43.1 µM | COLO 205 > 100 µM | EKVX 59.6 µM | LOX IMVI > 100 µM | MCF7 77.6 µM | MDA-MB-435 > 100 µM | MOLT-4 > 100 µM | NCI/ADR-RES > 100 µM | OVCAR-4 > 100 µM | OVCAR-5 > 100 µM | OVCAR-8 > 100 µM | RPMI-8226 26 µM | SK-MEL-2 > 100 µM | SK-MEL-5 > 100 µM | SR > 100 µM | UACC-257 61.7 µM | UO-31 > 100 µM

CC(C)(C)c1cc(Br)c(O)c(CN(Cc2cc(C(C)(C)C)cc(Br)c2O)C2CCCCC2)c1
inactive: 786-0 14.6 µM | ACHN 14.9 µM | CAKI-1 12.3 µM | COLO 205 11.2 µM | EKVX 14.8 µM | LOX IMVI 16.3 µM | MCF7 13.9 µM | MDA-MB-435 14.3 µM | MOLT-4 10.4 µM | NCI/ADR-RES 12 µM | OVCAR-4 10.5 µM | OVCAR-5 15.7 µM | OVCAR-8 15.1 µM | RPMI-8226 11.8 µM | SK-MEL-2 13.1 µM | SK-MEL-5 10.9 µM | SR 10.1 µM | UACC-257 4.14 µM | UO-31 14.4 µM
